Bounds are passed on as bounds.

The IC50 is the midpoint of a concentration-inhibition curve.

For data set [1], the system named is HepG2. More on the design: method as in https://pubchem.ncbi.nlm.nih.gov/compound/91800813. As to conditions: ref https://pubchem.ncbi.nlm.nih.gov/compound/91800813, read-out: cytotoxicity IC50; cited from earlier work.
Data set [2] deals with T1, Purified rabbit lung ACE (Oryctolagus cuniculus, UniProt P12822).
T1 construct: Purified rabbit lung ACE (EC 3.4.15.1) was purchased from Sigma-Aldrich; purchased Sigma-Aldrich; host or cells: rabbit lung tissue
T1 sequence (P12822 34-1310): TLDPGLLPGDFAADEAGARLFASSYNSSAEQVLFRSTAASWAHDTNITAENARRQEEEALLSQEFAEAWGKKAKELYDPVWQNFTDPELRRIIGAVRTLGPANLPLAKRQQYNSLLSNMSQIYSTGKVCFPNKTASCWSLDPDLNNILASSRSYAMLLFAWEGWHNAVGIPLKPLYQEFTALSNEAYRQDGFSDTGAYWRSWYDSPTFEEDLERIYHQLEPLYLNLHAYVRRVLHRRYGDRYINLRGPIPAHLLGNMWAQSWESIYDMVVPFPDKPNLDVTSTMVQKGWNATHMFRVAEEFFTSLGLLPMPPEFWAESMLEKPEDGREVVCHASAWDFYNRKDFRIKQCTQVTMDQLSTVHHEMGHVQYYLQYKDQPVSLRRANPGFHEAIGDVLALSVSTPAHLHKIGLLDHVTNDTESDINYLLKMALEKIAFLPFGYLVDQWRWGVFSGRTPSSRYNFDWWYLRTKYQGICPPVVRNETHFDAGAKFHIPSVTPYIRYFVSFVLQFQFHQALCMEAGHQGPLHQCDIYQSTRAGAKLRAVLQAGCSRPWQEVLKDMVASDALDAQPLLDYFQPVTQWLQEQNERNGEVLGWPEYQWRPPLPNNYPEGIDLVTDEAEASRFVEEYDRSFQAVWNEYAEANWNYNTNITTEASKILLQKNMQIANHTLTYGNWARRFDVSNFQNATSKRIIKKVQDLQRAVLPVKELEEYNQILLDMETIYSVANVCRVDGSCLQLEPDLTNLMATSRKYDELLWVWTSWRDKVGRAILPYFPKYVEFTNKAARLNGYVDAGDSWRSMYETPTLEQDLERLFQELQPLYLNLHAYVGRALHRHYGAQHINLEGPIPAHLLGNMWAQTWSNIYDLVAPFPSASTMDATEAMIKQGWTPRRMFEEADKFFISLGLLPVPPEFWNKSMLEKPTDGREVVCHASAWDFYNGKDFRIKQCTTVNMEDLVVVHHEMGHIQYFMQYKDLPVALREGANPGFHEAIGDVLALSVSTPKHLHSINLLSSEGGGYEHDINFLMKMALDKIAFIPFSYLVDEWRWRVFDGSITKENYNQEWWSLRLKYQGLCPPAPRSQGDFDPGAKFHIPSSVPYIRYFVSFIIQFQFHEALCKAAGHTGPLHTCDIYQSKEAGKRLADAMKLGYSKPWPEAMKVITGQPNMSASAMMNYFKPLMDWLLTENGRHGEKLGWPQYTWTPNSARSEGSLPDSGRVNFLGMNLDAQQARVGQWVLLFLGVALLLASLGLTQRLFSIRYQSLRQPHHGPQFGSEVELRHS
In words: ACE assay with Abz-FRK(Dnp)P-OH, dose-response. As to conditions: dose-response 7,5 pM to 62,5 μM. Format: biochemical.
Experimental: Because M32 MCPs show a strong topological similarity with ACE [22], we chose this enzyme to estimate the IC50 value for each molecule.
(A) Purified rabbit lung ACE was assayed at 37°C in 0,1 M Tris-HCl pH 7,0 buffer containing 50 mM NaCl, 10 mM ZnCl2 and 0,01% Triton X-100. […] NI, no inhibitor added. […] In all cases, solid lines represent the best fit of four-parameter Hill equation to experimental data (closed circles).
Purified rabbit lung ACE (EC 3.4.15.1) was purchased from Sigma-Aldrich. Enzyme activity was assayed fluorimetrically with Abz-FRK(Dnp)P-OH (ex/em = 320/420 nm) as substrate in buffer 0,1 M Tris-HCl, 50 mM NaCl, 10 mM ZnCl2, pH 7.0 containing 0,01% Triton X-100 as indicated in [23].

As for `N#Cc1ccc(S(=O)(=O)N2CCN(Cc3cccc(-c4ccncc4)c3)CC2)cc1` [TCMDC-143620], the IC50 in data set [1] is greater than 100 µM. Also, the ACE inhibition entry in data set [2] is “inactive”.

The values above are taken from article PMC6675120, “Potent and selective inhibitors for M32 metallocarboxypeptidases identified from high-throughput screening of anti-kinetoplastid chemical boxes” (PLoS Neglected Tropical Diseases, 2019).
